One assay concerns JAK2/STAT5. As to the kind of experiment: JAK2/STAT5 phosphorylation in breast cancer cell lines (pJAK2 ELISA, pSTAT5 immunoblot). The class given is cell-based, human. Particulars: for JAK2 activation, starting at (time of treatment): in vitro, time after adding the compound. The method, then: MDA231, lung metastatic subline MDA231 LM2 (Minn et al., 2005) and SUM159 human breast cancer cells, as well as the Balb/c tumor-derived mammary cancer lines 4T-1 and 168FARN (Aslakson and Miller, 1992), were propagated as previously described. All other cell lines were obtained from and were cultured according to the protocols of ATCC. For treatment with inhibitors, cells were synchronized without serum overnight and then supplemented with culture medium containing the inhibitor(s). For experiments with doxycycline-inducible shRNAs, 500 ng/ml of doxycycline (Sigma) was added to the medium and experiments performed 48 h later. Cell viability assays, cell cycle and cell death measurements were performed at 0.5% FCS in order to avoid masking effects of growth factors present under full-serum conditions.
Cells for Western Blotting and ELISA were lysed with RIPA buffer. Xenograft lysates were prepared by lysing kryo-homogenized tumor powder in RIPA buffer (50 mM Tris-HCl pH 8, 150 mM NaCl, 1% NP-40, 0.5% sodium deoxycholate, 0.1% SDS. RIPA was supplemented with 1× protease inhibitor cocktail (Complete Mini, Roche), 0.2 mmol/L sodium-vanadate, 20 mM sodium fluoride and 1 mmol/L phenylmethylsulfonyl fluoride. For IRS-1 immunoprecipitation, cell lysates containing 500-1000 μg of protein were incubated with 1 μg of antibody and 20-50 μl of protein A-Sepharose beads (Zymed Laboratories, Inc., South San Francisco, Calif.) overnight at 4° C. Immunoprecipitates or whole cell lysates (30-80 μg) were subjected to SDS-PAGE, transferred to PVDF membranes (Immobilon-P, Millipore) and blocked for 1 hr at room temperature with 5% milk in PBS-0.1% Tween 20. Membranes were then incubated overnight with antibodies as indicated and exposed to secondary HRP-coupled anti-mouse or -rabbit antibody at 1:5-10,000 for 1 h at room temperature. Proteins were visualized using an ECL kit (Amersham) or an enhanced chemiluminescence detection system (Pierce Biotechnology). In each of the studies presented, the results shown are typical of at least three independent experiments. The following antibodies were used: anti-JAK2 (Cell Signaling), anti-JAK1 (Cell Signaling), anti-pSTAT5 (Tyr694, Cell Signaling), anti-STAT5 (STAT5A&B, Cell Signaling), anti-STAT3 (Cell Signaling), anti-pSTAT3 (Tyr705, Cell Signaling), anti-AKT pan (Cell Signaling), anti-pAKT (Thr308 and Ser473, Cell Signaling), anti-ERK2 (Santa Cruz), anti-S6 (Cell Signaling), anti-pS6 (Ser235/236, Cell Signaling), anti-PARP (Cell Signaling), anti-MCL1 (Cell Signaling), anti-BIM (EL, L and S isoforms, Cell Signaling), anti-pIGF1R/plnsR (Invitrogen), anti-IGF1Rbeta (Cell Signaling), anti-InsRbeta (Santa Cruz), anti-IRS1 (Upstate), anti-plRS1 (Tyr612, Calbiochem).
For assessing pJAK2 levels, an ELISA assay (Tyr1007/1008, Invitrogen) was applied because of cross-reactivity of all pJAK2 antibodies tested. Interleukin-8 levels in RIPA lysates, cell culture supernatants and mouse tail vein blood plasma were measured by ELISA, as well (Biolegend). […]
The present inventors applied single doses of COMPOUND A, a dual PI3K and mTOR inhibitor, and analyzed target inhibition and potential signaling pathway crosstalks after 2, 4, 8 and 20 h hours of treatment. […] While RAD001 readily activated JAK2 starting at 4 hours of treatment, they observed a later response with BKM120 treatment starting at 8 hours after adding the compound. […]

The subject of a further assay is MDA231 LM2 cells. The assay can be described thus: Matrigel Boyden chamber invasion assay. Particulars: 300 nM BEZ235, 350 nM NVP-BSK805, CXCR1 blocking antibody; 48 h; normalized to cell number. The assay is classed as cell-based, human. As to the method:
FIG. 2. Blockade of CXCR1 reduces invasion and has minor effects on primary tumor growth (A) NVP-BSK805 and CXCR1 blockade but not BEZ235 decrease invasion. Bar graphs showing relative invasion of MDA231 LM2 cells seeded on Matrigel coated Boyden invasion chambers and treated with 300 nM BEZ235, 350 nM NVP-BSK805, a JKA2 inhibitor, and/or CXCR1 blocking antibody. Invasion was assessed after 48 h, data represent relative invasion values normalized to cell number and are means±SEM (n=4, *P<0.05).
Cytokine stimulation of cells was performed for 30 min in medium with 0.5% FCS supplemented with cytokines at 10 ng/ml, except for EPO at 10 U/ml. Antibody-blocking experiments were performed by adding anti-CXCR1 (R&D, MAB330, 1 μg/ml), anti-CXCR2 (R&D, MAB331, 2.5 μg/ml) or a mouse IgG antibody (R&D, 1 μg/ml) to the medium 45 min prior to lysis of the cells. Cell viability was measured using the Cell Proliferation Reagent WST-1 (Roche). Colony formation assays were performed by seeding 1000 cells/well in 6-well plates and staining single colonies after 7-14 days with 0.2% crystal violet in PBS/4% formalin. […] The number of invading cells in each treatment condition was counted 48 h after seeding by microscopy at 40× (using the mean of 4 microscopic fields) and normalized to cell number.

Consider `Nc1cc(C(F)(F)F)c(-c2cc(N3CCOCC3)nc(N3CCOCC3)n2)cn1` [COMPOUND C, 5-(2,6-di-morpholin-4-yl-pyrimidin-4-yl)-4-trifluoromethyl-pyridin-2-ylamine], for which the “JAK2 activation, starting at (time of treatment)” value with JAK2/STAT5 stood at 8 h. As for `Fc1cc(-c2cccc3ncc(-c4cnn(C5CCNCC5)c4)nc23)cc(F)c1CN1CCOCC1` [NVP-BSK805, reference compound], the “upregulation of pSTAT5 by BEZ235” value with JAK2/STAT5 (JAK2 inhibitor together with BEZ235) is recorded as “counteracted”. Also, in the assay with MDA231 LM2 cells, the relative invasion result is on record as “decrease”.

For the compound `CO[C@H]1C[C@@H]2CC[C@@H](C)[C@@](O)(O2)C(=O)C(=O)N2CCCC[C@H]2C(=O)O[C@H]([C@H](C)C[C@@H]2CC[C@@H](OCCO)[C@H](OC)C2)CC(=O)[C@H](C)/C=C(\C)[C@@H](O)[C@@H](OC)C(=O)[C@H](C)C[C@H](C)/C=C/C=C/C=C/1C` [RAD001, reference compound], the “JAK2 activation, starting at (time of treatment)” value in the assay on JAK2/STAT5 is 4 h.

These data come from patent publication US20150224190A1, “Combination of a phosphoinositide 3-kinase inhibitor and an inhibitor of the IL-8/CXCR interaction” (priority 2012, published 2015).
